Assay [1] has as its target T1, Staphylococcus aureus glycyl tRNA synthetase (GRS), SEQ ID NO:1 (Staphylococcus aureus, UniProt P99129).
T1 construct: purified enzyme or crude lysate; homodimer
T1 sequence (P99129 1-463): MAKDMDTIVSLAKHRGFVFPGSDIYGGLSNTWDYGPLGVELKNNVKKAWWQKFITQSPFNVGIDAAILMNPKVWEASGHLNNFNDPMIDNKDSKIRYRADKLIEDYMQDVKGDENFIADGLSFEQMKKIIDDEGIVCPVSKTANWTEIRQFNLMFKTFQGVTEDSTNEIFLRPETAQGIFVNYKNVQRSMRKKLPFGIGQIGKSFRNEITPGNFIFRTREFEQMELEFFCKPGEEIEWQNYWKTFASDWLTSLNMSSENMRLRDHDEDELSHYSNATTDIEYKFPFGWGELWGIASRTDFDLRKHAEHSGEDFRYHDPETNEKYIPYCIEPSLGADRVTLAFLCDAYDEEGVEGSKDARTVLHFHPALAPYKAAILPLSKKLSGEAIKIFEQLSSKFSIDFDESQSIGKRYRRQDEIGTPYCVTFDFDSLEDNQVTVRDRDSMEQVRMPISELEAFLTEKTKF
Nature of the assay: Stopped-flow tryptophan fluorescence measurement of inhibitor binding to GRS. From the text: (§1) Glycylsulfmoyladenosine is an analogue of the Gly-AMP reaction intermediate and inhibits GRS catalytic activity as measured by any of the techniques described in the examples below. Estimates of the potency of inhibition are obtained by performing enzyme assays in the presence of a range of inhibitor concentrations, and fitting the effect of inhibitor concentration on enzyme velocity to a four parameter logistic function that allows calculation of an IC50 (the inhibitor concentration at which GRS activity is reduced by half). […] Binding of glycylsulfamoyladenosine to GRS can also be measured directly using stopped-flow fluorescence techniques because enzyme:inhibitor binary complex has around 5% higher tryptophan fluorescence than the free enzyme. Experiments of this type yield the following elementary rate constants for inhibitor binding; kon =1.1×10^6 s^-1.M^-1, koff =2.9s ^-1 .
(1) Effects of ligand binding upon enzyme intrinsic fluorescence (e.g. of tryptophan). Binding of either natural ligands or inhibitors may result in enzyme conformational changes which alter enzyme fluorescence. Using stopped-flow fluorescence equipment, this can be used to define the microscopic rate constants that describe binding. Alternatively, steady-state fluorescence titration methods can yield the overall dissociation constant for binding in the same way that these are accessed through enzyme inhibition experiments.

Assay [2] has as its target T1, Staphylococcus aureus glycyl tRNA synthetase (GRS), SEQ ID NO:1. Nature of the assay: Aminoacylation assay of GRS catalytic activity in the presence of a range of inhibitor concentrations. The class given is biochemical. The settings on record: S. aureus GRS; four parameter logistic fit; tRNA acylation with radiolabelled glycine, 37° C.; read-out: IC50 (the inhibitor concentration at which GRS activity is reduced by half).
Excerpt: as §1
Assays were performed either using purified S. aureus GRS overexpressed in E. coli, or using crude cell lysate from E. coli overexpressing GRS. The latter contained around 10% of total protein as GRS. Enzyme was stored at -70° C. in 50 mM Tris-HCl buffer (pH 7.8), 10 mM MgCl2 and 10 mM B-mercaptoethanol after flash freezing in liquid N2. […]
The assay procedure was as follows. […] The filters were dried at 70° C. for 1 hour and the levels of radioactivity measured by scintillation counting (Packard Topcount). […]

Regarding `NCC(=O)NS(=O)(=O)OC[C@H]1O[C@@H](n2cnc3c(N)ncnc32)[C@H](O)[C@@H]1O` [glycylsulfamoyladenosine, 5'-O-Glycylsulfamoyladenosine], in assay [1], the off-rate (koff) (usually the first-order rate constant of dissociation) was 2.9 s⁻¹ and the kon – broadly, a measure of how fast the partners come together – came to 1.1e+06 M⁻¹ s⁻¹. Besides, the Kd (in general, the concentration at which binding is half-saturated) in assay [1] (estimate from the ratio of koff and kon) was 2600 nM. Besides, the IC50 in assay [2] was approximately 2400 nM.

The values above are taken from patent publication US6197495A, “Methods using the staphylococcus aureus glycyl tRNA synthetase crystalline structure” (SmithKline Beecham Corporation, priority 1998, dated 2001).
